Assay results taken from PMC12775124, “CUL4A-DDB1-DCAF10 is an N-recognin for N-terminally acetylated Src kinases” (Nature Communications, 2026).
Read-outs that look alike come from different tables or passages of the source.

Biological target: T1, human NatA (Homo sapiens, UniProt P41227+Q9BXJ9)
T1 construct: Human NatA (hNatA) full-length (FL) was cloned; made in house; host or cells: Tnao38 insect cells (baculovirus, pFL vector)
T1 sequence (P41227 1-235): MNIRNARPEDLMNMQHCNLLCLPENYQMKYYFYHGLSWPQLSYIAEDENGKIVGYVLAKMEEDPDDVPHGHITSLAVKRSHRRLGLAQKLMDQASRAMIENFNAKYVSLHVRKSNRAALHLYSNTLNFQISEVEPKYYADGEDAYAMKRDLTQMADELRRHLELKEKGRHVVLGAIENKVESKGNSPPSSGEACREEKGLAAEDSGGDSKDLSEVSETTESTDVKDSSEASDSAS
T1 sequence (Q9BXJ9 1-866 partner): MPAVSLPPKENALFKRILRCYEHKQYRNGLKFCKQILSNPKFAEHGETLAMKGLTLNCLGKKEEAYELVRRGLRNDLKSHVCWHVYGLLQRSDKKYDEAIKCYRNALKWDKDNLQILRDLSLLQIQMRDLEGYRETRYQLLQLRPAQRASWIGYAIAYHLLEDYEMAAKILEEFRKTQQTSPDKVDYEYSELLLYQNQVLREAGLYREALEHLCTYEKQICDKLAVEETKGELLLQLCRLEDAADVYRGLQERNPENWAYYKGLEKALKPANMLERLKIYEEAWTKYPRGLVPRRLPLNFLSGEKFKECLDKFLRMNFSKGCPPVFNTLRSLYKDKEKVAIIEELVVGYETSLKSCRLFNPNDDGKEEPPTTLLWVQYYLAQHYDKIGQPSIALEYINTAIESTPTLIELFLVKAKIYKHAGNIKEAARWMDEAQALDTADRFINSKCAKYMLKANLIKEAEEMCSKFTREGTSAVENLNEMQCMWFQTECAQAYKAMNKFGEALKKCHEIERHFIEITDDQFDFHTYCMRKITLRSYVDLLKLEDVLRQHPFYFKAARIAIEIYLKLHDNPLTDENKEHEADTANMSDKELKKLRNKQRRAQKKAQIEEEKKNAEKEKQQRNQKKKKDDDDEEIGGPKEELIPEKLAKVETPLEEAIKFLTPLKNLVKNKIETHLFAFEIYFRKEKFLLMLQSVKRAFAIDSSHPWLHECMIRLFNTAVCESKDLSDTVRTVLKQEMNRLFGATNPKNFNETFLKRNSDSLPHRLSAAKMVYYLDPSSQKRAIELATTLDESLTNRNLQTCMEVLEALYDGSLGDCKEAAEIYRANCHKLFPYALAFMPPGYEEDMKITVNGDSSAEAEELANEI
Assay: In vitro Nt-acetylation assay (NatA, CPM fluorescence)
Format: biochemical
Protocol: Gly-starting proteins can be substrates of the Nt-acetyltransferase NatA[3],[21]. Having established direct DCAF10 binding to Ac-Gly N-termini, we next asked whether SFK N-termini are bona fide NatA substrates. We developed an in vitro Nt-acetylation assay comprising purified NatA, acetyl-CoA (Ac-CoA), and the peptide of interest (Fig. 3a, b)[33]. Acetyl-group transfer was assessed using CPM [7-(diethylamino)−3-(4′-maleimidophenyl)−4-methylcoumarin], which reacts specifically with free thiol groups to produce a highly fluorescent product (excitation: 390 nm; emission: 479 nm), allowing detection of CoA production after acetyl-group transfer to the peptide (Supplementary Fig. 4e). We optimized the conditions to determine Michaelis–Menten kinetics for NatA-mediated Nt-acetylation with a target peptide ([…]) previously used for NatA assays and co-crystallization (Supplementary Fig. 4f)[34]. […] Likely, this was due to a Km even higher than that of Src, and implying that the peptide concentrations in the assay might have been insufficient for the reaction to proceed with an appreciable rate. […] Negative controls (COX17 and Ac-Lyn) produced low signals. […] Given the direct association of NatA with SFK N-termini at the ribosomal exit tunnel, however, we surmise that Nt-acetylation of SFKs in cells may proceed despite these unfavorable kinetic parameters.
The assay was performed essentially as described previously. Briefly, peptide substrates (Supplementary Table 1) were incubated with purified human NatA and acetyl-CoA; acetylation was quantified by CPM fluorescence (CoA detection), and Michaelis–Menten parameters were derived from 8-point 1:1 dilution series within the linear range (n = 4 independent enzymatic assays). Full buffer compositions, reagent concentrations, plate format, instrument settings, controls, and fitting procedures are provided in the Supplementary Methods and Tables. […]
301 Cloning, expression, and purification of human NatA
302 Human NatA (hNatA) full-length (FL) was cloned in a pFL vector expressing both
303 genes, NAA15 with a 6× C-term histidine tag (NAA15-6xHIS) and NAA102. The
304 expression was carried out in insect cells (Tnao38) for 72 h infected 1:20 with
305 baculovirus. Washed cell pellets were lysed by sonication in a lysis buffer containing 200
306 mM NaCl, 50 mM HEPES pH 8.0, 20 mM Imidazole, and 2 mM TCEP. The protein
307 purification was performed as a three-step purification, starting with an affinity nickel
308 column, followed by an ion-exchange column with a gradient of 50–300 mM NaCl, and
309 finished with size exclusion chromatography (SEC) using an S200 10/300 column. The
310 main peaks were collected, and the protein was concentrated in the SEC buffer (150 mM
311 NaCl, 50 mM HEPES pH 8.0, 1 mM EDTA). The purified hNatA was flash-frozen in
312 liquid nitrogen and stored at -80°C.
314 In vitro Nt-acetylation assay
315 The method has been described in detail previously2. Briefly, different peptides
316 (Supplementary Table 1) and concentrations (an eight-step, 1:1 dilution series for
317 Michaelis-Menten curves) as indicated were incubated with 20 nM hNatA and 80 µM Ac-
318 CoA in reaction buffer (50 mM HEPES pH 8.0, 0.5 mM EDTA, 0.005% CHAPS) for 60
319 (Src) or 120 min (Lyn), at RT in a 384-well microplate (Corning 4514) (n = 4).
320 Afterwards, the enzymatic reaction was stopped by adding 1:1 DMSO with 10 µM (final
321 concentration 5 µM) of the thiol reactive CPM (7-Diethylamino-3-
322 (4'Maleimidylphenyl)4-Methylcoumarin). After 1 h at RT, the readout was performed
323 with a Tecan Spark® Multimode Microplate Reader (excitation 390 nm, emission 479
324 nm). Background values at 0 µM peptide were subtracted, and control reactions omitting
325 NatA or Ac-CoA were performed. Dilution series of CoA incubated with 5 µM CPM were
326 used to generate a linear equation (y = 10.99*x + 81.06) to calculate acetylation velocities
327 for NatA-mediated peptide acetylation. […]

[1] = starting peptide concentration 1 mM
[2] = 20 nM NatA, 80 µM Ac-CoA, pH 8.0, RT, 120 min, peptide up to 1 mM, CPM fluorescence, mean ± s.d., n = 4, read-out: Km
[3] = conclusion: poor NatA substrates, read-out: Km, summary statement
[4] = original assay, peptide up to 160 μM
[5] = rounded values in Peer Review File, read-out: Km, as given in rebuttal

Which “Nt-acetylation by NatA (in words)” value [1] does the source give for “GCIKSKGKDSKK [Ac-Lyn, Nt-peptide of Lyn (aa 1–10 + KKK-biotin), Nt-acetylated]” here?
The value was “low signals”.

Which results are given for “GCIKSKGKDSKK [Nt-free Lyn, Nt-peptide of Lyn (aa 1–10 + KKK-biotin), Nt-free]”?
Km [2]: 411 ± 94 µM; Km [3]: > 100 µM; Nt-acetylation by NatA (in words) [4]: did not show Nt-acetylation under these conditions; Km [5]: 411 µM; Nt-acetylation by NatA (in words) [1]: detectable Nt-acetylation

How did the Km [2] turn out when “GCVQCKDKEAKK [Nt-free Fyn, Nt-peptide of Fyn, Nt-free]” was run?
The Km was 235 ± 46 µM.

What about the Km [3] of the same sequence?
Its Km is greater than 100 µM.

What about the “Nt-acetylation by NatA (in words)” value [4] of the same sequence?
The value was “did not show Nt-acetylation under these conditions”.

And the Km [5]?
The Km was 235 µM.

What about the “Nt-acetylation by NatA (in words)” value [1] of the same sequence?
Its value is “detectable Nt-acetylation”.

Which “Nt-acetylation by NatA (in words)” value [4] does the source give for “GSNKSKPKDAKK [Ac-Src, Nt-peptide of Src, Nt-acetylated]” here?
The value was “no detectable acetylation”.
